In PubChem BioAssay AID330 (DTP/NCI, 2004):
Inconclusive results and toxic doses are left out. Rule for the calls: active = survival T/C of 150% or more; inactive = T/C below 125% in these data. Numbered stars: 1 amine (or outer) side, 2 acyl side, 3 side chain; on linkers, the order of the positions; unused ones are H or OH. Square brackets hold non-standard residues; d marks the D form. Peptide text beside a SMILES is read from it. * marks the point of attachment. ξ: configuration not given here. X4 = CCC(=O)CC(O)CC(C)CC(N[*:1])C(=O)[*:2]; ξLeu(3ξ-OH) = CC(C)C(O)C(N)C(=O)O; ξPro(4ξ-Me) = CC1CNC(C(=O)O)C1; X3 = CCC(C)/C=C/C(=O)*; Aib = CC(C)(N)C(=O)O; X5 = CC(CN(C)C)N*; βAla = NCCC(=O)O

System: P388 leukemia ip, CD2F1 mice, survival T/C
Assay: NCI In Vivo Anticancer Drug Screen. Data for tumor model P388 Leukemia (intraperitoneal) in CD2F1 (CDF1) mice
Settings: endpoint: median survival time, higher = longer survival
Outline: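 Mice carrying the transplanted tumor received test compound or vehicle. Survival was recorded in each group, and the value is the treated-group measurement divided by that of the vehicle-treated control group.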

[1] = dose: 60.0 mg/kg/injection, schedule: Q01DX005 (ip), vehicle: Klucel (hydroxypropylcellulose) (HPC)
[2] = dose: 120.0 mg/kg/injection, schedule: Q01DX005 (ip), vehicle: Klucel (hydroxypropylcellulose) (HPC)
[3] = dose: 240.0 mg/kg/injection, schedule: Q01DX005 (ip), vehicle: Klucel (hydroxypropylcellulose) (HPC)
[4] = dose: 50.0 mg/kg/injection, schedule: Q01DX005 (ip), vehicle: Klucel (hydroxypropylcellulose) (HPC)
[5] = dose: 100.0 mg/kg/injection, schedule: Q01DX005 (ip), vehicle: Klucel (hydroxypropylcellulose) (HPC)
[6] = dose: 200.0 mg/kg/injection, schedule: Q01DX005 (ip), vehicle: Klucel (hydroxypropylcellulose) (HPC)
[7] = dose: 50.0 mg/kg/injection, schedule: Q01DX001 (ip), vehicle: saline
[8] = dose: 100.0 mg/kg/injection, schedule: Q01DX001 (ip), vehicle: saline
[9] = dose: 200.0 mg/kg/injection, schedule: Q01DX001 (ip), vehicle: saline
[10] = dose: 50.0 mg/kg/injection, schedule: Q01DX005 (ip), vehicle: saline with Tween-80
[11] = dose: 400.0 mg/kg/injection, schedule: Q01DX001 (ip), vehicle: saline
[12] = dose: 100.0 mg/kg/injection, schedule: Q01DX001 (ip), vehicle: Klucel (hydroxypropylcellulose) (HPC)
[13] = dose: 50.0 mg/kg/injection, schedule: Q01DX009 (ip), vehicle: saline
[14] = dose: 100.0 mg/kg/injection, schedule: Q01DX009 (ip), vehicle: saline
[15] = dose: 200.0 mg/kg/injection, schedule: Q01DX009 (ip), vehicle: saline

Measured: T/C

Cc1ccc(C2OC(N)=C(O)C2=O)cc1 (stereo not drawn)
inactive: [1] 107 % of control | [2] 100 % of control | [3] 93 % of control

C=CCOP1(c2ccccc2)(c2ccccc2)NC(c2ccccc2)(c2ccccc2)C(C(=O)OC)=C1C(=O)OC
inactive: [4] 90 % of control | [5] 91 % of control | [6] 92 % of control

C(=N\c1nccs1)/c1ccc[nH]1
inactive: [4] 99 % of control | [5] 96 % of control | [6] 100 % of control

CC(Cl)CN1CC(C)OC1=O (stereo not drawn)
inactive: dose: 25.0 mg/kg/injection, schedule: Q01DX001 (ip), vehicle: saline 105 % of control | [7] 102 % of control | [8] 108 % of control | [9] 108 % of control

CC1C(O)C(C)C(c2ccccc2)N(C)C1c1ccccc1 (stereo not drawn)
inactive: [10] 100 % of control | dose: 100.0 mg/kg/injection, schedule: Q01DX005 (ip), vehicle: saline with Tween-80 106 % of control | dose: 200.0 mg/kg/injection, schedule: Q01DX005 (ip), vehicle: saline with Tween-80 106 % of control

C/C(=N\NC(N)=O)C1(c2ccccc2)CCN(C)CC1
inactive: dose: 100.0 mg/kg/injection, schedule: Q04DX002 (ip), vehicle: Klucel (hydroxypropylcellulose) (HPC) 100 % of control | dose: 200.0 mg/kg/injection, schedule: Q04DX002 (ip), vehicle: Klucel (hydroxypropylcellulose) (HPC) 97 % of control | dose: 400.0 mg/kg/injection, schedule: Q04DX002 (ip), vehicle: Klucel (hydroxypropylcellulose) (HPC) 96 % of control

CCC(=O)CC(O)CC(C)CC(NC(=O)C1CC(C)CN1C(=O)/C=C/C(C)CC)C(=O)NC(C(=O)NC(C)(C)C(=O)NC(CC(C)C)C(=O)NC(CC(C)C)C(=O)NC(C)(C)C(=O)NC(C)(C)C(=O)NCCC(=O)NC(C)CN(C)C)C(O)C(C)C (stereo not drawn) (X3-[ξPro(4ξ-Me)][X4][ξLeu(3ξ-OH)][Aib]LL[Aib][Aib][βAla]-X5; configuration not given here)
inactive: dose: 50.0 micrograms/kg/injection, schedule: Q01DX005 (ip), vehicle: saline + alcohol 101 % of control | dose: 100.0 micrograms/kg/injection, schedule: Q01DX005 (ip), vehicle: saline + alcohol 101 % of control | dose: 200.0 micrograms/kg/injection, schedule: Q01DX005 (ip), vehicle: saline + alcohol 101 % of control | dose: 400.0 micrograms/kg/injection, schedule: Q01DX005 (ip), vehicle: saline + alcohol 111 % of control | dose: 800.0 micrograms/kg/injection, schedule: Q01DX005 (ip), vehicle: saline + alcohol 110 % of control

Cn1c(=O)c2cc(O)cnc2n(C)c1=O
inactive: dose: 100.0 mg/kg/injection, schedule: Q04DX003 (ip), vehicle: saline with Tween-80 95 % of control | dose: 200.0 mg/kg/injection, schedule: Q04DX003 (ip), vehicle: saline with Tween-80 91 % of control | dose: 400.0 mg/kg/injection, schedule: Q04DX003 (ip), vehicle: saline with Tween-80 86 % of control

NC(=S)c1ccccc1N=Cc1cccs1
inactive: [8] 100 % of control | [9] 102 % of control | [11] 98 % of control

CC(=O)N/N=C(\C(=O)OC(=NC1CCCCC1)NC1CCCCC1)c1ccccc1
inactive: [4] 87 % of control | [5] 87 % of control | [6] 91 % of control

Cc1cc2c3c([nH]c2cc1[N+](=O)[O-])CCCC3=O
inactive: dose: 25.0 mg/kg/injection, schedule: Q01DX005 (ip), vehicle: Klucel (hydroxypropylcellulose) (HPC) 88 % of control | [4] 88 % of control | [5] 86 % of control | [6] 90 % of control

COc1ccc(C2c3cc4c(cc3OC(C)(O)C2C)OCO4)c(OC)c1 (stereo not drawn)
inactive: [1] 98 % of control | [2] 97 % of control | [3] 100 % of control

CC(C)CNC(=O)C(=O)NCC(C)C
inactive: dose: 25.0 mg/kg/injection, schedule: Q01DX001 (ip), vehicle: Klucel (hydroxypropylcellulose) (HPC) 98 % of control | dose: 50.0 mg/kg/injection, schedule: Q01DX001 (ip), vehicle: Klucel (hydroxypropylcellulose) (HPC) 101 % of control | [12] 101 % of control

O=C(O)CCC1NC(=O)NC1=O (stereo not drawn)
inactive: [7] 100 % of control | [8] 103 % of control | [9] 104 % of control | [11] 94 % of control

CP1(=S)CC(Br)=C2CCCCC21 (stereo not drawn)
inactive: dose: 100.0 mg/kg/injection, schedule: Q04DX003 (ip), vehicle: Klucel (hydroxypropylcellulose) (HPC) 108 % of control | dose: 200.0 mg/kg/injection, schedule: Q04DX003 (ip), vehicle: Klucel (hydroxypropylcellulose) (HPC) 106 % of control | dose: 400.0 mg/kg/injection, schedule: Q04DX003 (ip), vehicle: Klucel (hydroxypropylcellulose) (HPC) 107 % of control

O=[N+]([O-])c1cc(Br)c2c(c1)CCN2
inactive: dose: 25.0 mg/kg/injection, schedule: Q01DX009 (ip), vehicle: distilled water + Tween-80 98 % of control | dose: 50.0 mg/kg/injection, schedule: Q01DX009 (ip), vehicle: distilled water + Tween-80 100 % of control | dose: 100.0 mg/kg/injection, schedule: Q01DX009 (ip), vehicle: distilled water + Tween-80 97 % of control | dose: 200.0 mg/kg/injection, schedule: Q01DX009 (ip), vehicle: distilled water + Tween-80 103 % of control | dose: 400.0 mg/kg/injection, schedule: Q01DX009 (ip), vehicle: distilled water + Tween-80 116 % of control

CC(C)=CBr
inactive: [13] 105 % of control | [14] 105 % of control | [15] 110 % of control

Cc1nc(Sc2nc3ccc([N+](=O)[O-])cc3s2)sc1C
inactive: [13] 87 % of control | [14] 96 % of control | [15] 105 % of control | dose: 400.0 mg/kg/injection, schedule: Q01DX009 (ip), vehicle: saline 96 % of control

COc1ccc2c(c1C)CN1CCc3cc4c(cc3C1=C2)OCO4
inactive: dose: 60.0 mg/kg/injection, schedule: Q01DX005 (ip), vehicle: saline with Tween-80 99 % of control | dose: 120.0 mg/kg/injection, schedule: Q01DX005 (ip), vehicle: saline with Tween-80 117 % of control | dose: 240.0 mg/kg/injection, schedule: Q01DX005 (ip), vehicle: saline with Tween-80 100 % of control

O=C1OCCSCCOCCSCCOC(=O)c2cccc1n2
inactive: [12] 96 % of control | dose: 200.0 mg/kg/injection, schedule: Q01DX001 (ip), vehicle: Klucel (hydroxypropylcellulose) (HPC) 93 % of control | dose: 400.0 mg/kg/injection, schedule: Q01DX001 (ip), vehicle: Klucel (hydroxypropylcellulose) (HPC) 102 % of control

O=C(O)c1ccc(NC(C[N+](=O)[O-])C(F)(F)C(F)(F)C(F)(F)F)cc1 (stereo not drawn)
inactive: dose: 100.0 mg/kg/injection, schedule: Q01DX001 (ip), vehicle: saline sonified 100 % of control | dose: 200.0 mg/kg/injection, schedule: Q01DX001 (ip), vehicle: saline sonified 100 % of control | dose: 400.0 mg/kg/injection, schedule: Q01DX001 (ip), vehicle: saline sonified 100 % of control

c1ccc([P+](COC[P+](c2ccccc2)(c2ccccc2)c2ccccc2)(c2ccccc2)c2ccccc2)cc1
inactive: dose: 6.25 mg/kg/injection, schedule: Q01DX009 (ip), vehicle: Klucel (hydroxypropylcellulose) (HPC) 92 % of control | dose: 12.5 mg/kg/injection, schedule: Q01DX009 (ip), vehicle: Klucel (hydroxypropylcellulose) (HPC) 94 % of control

CCCCCCCCCCCSSCCCCCCCCCCC
inactive: dose: 100.0 mg/kg/injection, schedule: Q01DX009 (ip), vehicle: other 100 % of control | dose: 100.0 mg/kg/injection, schedule: Q04DX003 (ip), vehicle: other 109 % of control | dose: 200.0 mg/kg/injection, schedule: Q01DX009 (ip), vehicle: other 109 % of control | dose: 200.0 mg/kg/injection, schedule: Q04DX003 (ip), vehicle: other 104 % of control | dose: 400.0 mg/kg/injection, schedule: Q01DX009 (ip), vehicle: other 104 % of control | dose: 400.0 mg/kg/injection, schedule: Q04DX003 (ip), vehicle: other 100 % of control

CC(C)[C@@H]1CC[C@@H](C)C[C@H]1N
inactive: dose: 12.5 mg/kg/injection, schedule: Q01DX005 (ip), vehicle: saline 107 % of control | dose: 25.0 mg/kg/injection, schedule: Q01DX005 (ip), vehicle: saline 98 % of control | [10] 113 % of control | dose: 50.0 mg/kg/injection, schedule: Q01DX005 (ip), vehicle: saline 100 % of control
